Laboratory results: ChEMBL document CHEMBL3611990, “Identification of Purines and 7-Deazapurines as Potent and Selective Type I Inhibitors of Troponin I-Interacting Kinase (TNNI3K)” (J Med Chem, 2015)
≈ marks a conversion by molar mass, not a printed value.

Experiments:
[1] = target: Serine/threonine-protein kinase B-raf (Homo sapiens, UniProt P15056, V600E); test: Inhibition of His6-tagged full length BRAF V600E mutant (2 to 766 residues) (unknown origin) expressed in Baculovirus expression system by BRAMA method
Chain of Serine/threonine-protein kinase B-raf (P15056 2-766 V600E limits assumed): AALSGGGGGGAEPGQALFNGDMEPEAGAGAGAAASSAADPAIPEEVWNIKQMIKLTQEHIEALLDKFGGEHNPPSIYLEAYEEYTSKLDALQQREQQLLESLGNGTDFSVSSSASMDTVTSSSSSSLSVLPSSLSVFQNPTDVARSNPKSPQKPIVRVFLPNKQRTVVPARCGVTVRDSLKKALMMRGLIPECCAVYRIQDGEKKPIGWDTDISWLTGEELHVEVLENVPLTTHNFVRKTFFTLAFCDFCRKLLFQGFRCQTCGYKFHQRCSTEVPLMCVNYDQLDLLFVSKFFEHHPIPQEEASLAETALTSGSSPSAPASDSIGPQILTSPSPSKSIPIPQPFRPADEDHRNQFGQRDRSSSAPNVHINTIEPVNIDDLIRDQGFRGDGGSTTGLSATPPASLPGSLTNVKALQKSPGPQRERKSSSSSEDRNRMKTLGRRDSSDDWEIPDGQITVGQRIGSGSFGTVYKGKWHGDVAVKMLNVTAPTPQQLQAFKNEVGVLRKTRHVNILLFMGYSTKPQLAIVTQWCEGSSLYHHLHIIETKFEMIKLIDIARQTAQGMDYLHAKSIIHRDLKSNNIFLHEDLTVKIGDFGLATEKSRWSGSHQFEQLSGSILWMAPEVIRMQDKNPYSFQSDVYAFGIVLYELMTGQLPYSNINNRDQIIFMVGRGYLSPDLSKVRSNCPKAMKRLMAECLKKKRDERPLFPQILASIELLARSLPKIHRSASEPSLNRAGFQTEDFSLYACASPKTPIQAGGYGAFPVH

[2] = target: T1, Serine/threonine-protein kinase TNNI3K (Homo sapiens, UniProt Q59H18); test: Displacement of 5-({[2-({[3-({4-[(5-hydroxy-2-methylphenyl)amino]-2-pyrimidinyl}amino)phenyl]carbonyl}amino)-ethyl]amino}carbonyl)-2-(6-hydroxy-3-oxo-3H-xanthen-9-yl)benzoic acid from His6-MBP-TEV-full length human TNNI3K expressed in Baculovirus expression system after 60 mins by fluorescence polarization assay
T1 sequence (Q59H18 whole entry): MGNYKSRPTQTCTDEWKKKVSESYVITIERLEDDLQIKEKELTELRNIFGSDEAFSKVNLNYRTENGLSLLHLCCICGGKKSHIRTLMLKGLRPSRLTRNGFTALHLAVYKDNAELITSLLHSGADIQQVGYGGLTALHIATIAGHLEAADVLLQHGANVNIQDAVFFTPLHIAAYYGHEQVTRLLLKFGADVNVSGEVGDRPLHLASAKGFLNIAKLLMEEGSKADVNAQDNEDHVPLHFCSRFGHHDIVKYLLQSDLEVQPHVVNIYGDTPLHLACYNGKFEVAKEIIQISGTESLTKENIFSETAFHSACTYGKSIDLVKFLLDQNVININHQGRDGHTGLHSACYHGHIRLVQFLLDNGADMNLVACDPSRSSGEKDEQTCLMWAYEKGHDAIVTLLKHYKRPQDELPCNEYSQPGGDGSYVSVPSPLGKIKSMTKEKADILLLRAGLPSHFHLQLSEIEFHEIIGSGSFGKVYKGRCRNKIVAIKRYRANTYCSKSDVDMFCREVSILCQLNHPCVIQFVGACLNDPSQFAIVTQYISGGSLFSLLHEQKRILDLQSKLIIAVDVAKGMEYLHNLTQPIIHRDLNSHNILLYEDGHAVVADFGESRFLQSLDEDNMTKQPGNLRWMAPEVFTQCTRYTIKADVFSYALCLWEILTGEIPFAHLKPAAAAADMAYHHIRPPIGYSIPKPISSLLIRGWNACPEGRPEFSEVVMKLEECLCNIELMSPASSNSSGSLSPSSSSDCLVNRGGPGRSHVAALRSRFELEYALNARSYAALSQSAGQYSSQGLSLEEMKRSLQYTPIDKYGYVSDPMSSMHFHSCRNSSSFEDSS

Rattus norvegicus = test: Dose normalized AUC in po dosed Sprague-Dawley rat by LC/MS/MS analysis; type: ADME, organism-based; details: in vivo
[3] = target: T1, Serine/threonine-protein kinase TNNI3K; test: Binding affinity to TNNI3K (unknown origin)
[4] = Oral bioavailability in Sprague-Dawley rat by LC/MS/MS analysis; type: ADME, organism-based; details: in vivo
[5] = Plasma clearance in Sprague-Dawley rat at 1 mg/kg, iv by LC/MS/MS analysis; type: ADME, organism-based
[6] = Aqueous solubility of the compound; type: physicochemical
[7] = Volume of distribution at steady state in Sprague-Dawley rat by LC/MS/MS analysis; type: ADME, organism-based; details: in vivo, read-out: Vdss
[8] = target: T1, Serine/threonine-protein kinase TNNI3K; test: Inhibition of human myc-tagged TNNI3K autophosphorylation overexpressed in HEKMSRII cells preincubated for 30 mins followed by pervanadate solution addition measured after 20 mins by DELFIA; type: cell-based

Row | SMILES | IC50 [1] | IC50 [2] | AUC/dose (Rattus norvegicus) | other results
1 | CNS(=O)(=O)c1cccc(Nc2ncnc3[nH]c(C(=O)O)cc23)c1 | 40 nM | 160 nM | – | –
2 | CNS(=O)(=O)c1cccc(Nc2ncnc3[nH]cnc23)c1 | 32 nM | 500 nM | 0 kg·h/L | Kd [3]: 111 nM
3 | CNS(=O)(=O)c1cccc(Nc2nc(F)nc3[nH]cnc23)c1 | – | 3200 nM | – | –
4 | CNS(=O)(=O)c1cccc(Nc2ncnc3c2ncn3C)c1 | – | > 25000 nM | – | –
5 | CNS(=O)(=O)c1cccc(Nc2nc(N)nc3[nH]cnc23)c1 | – | 8000 nM | – | –
6 | CNS(=O)(=O)c1cccc(Nc2nc(Cl)nc3[nH]cnc23)c1 | – | 16000 nM | – | –
7 | CNS(=O)(=O)c1cccc(Nc2ncnc3[nH]ncc23)c1 | – | 50 nM | – | bioavailability [4]: 5%; clearance [5]: 72 mL/min/kg
8 | CNS(=O)(=O)c1cccc(Nc2ncnc3[nH]ccc23)c1 | 50 nM | 80 nM | 0.08 kg·h/L | bioavailability [4]: 34%; clearance [5]: 68 mL/min/kg; solubility [6]: 50 µM (≈ 15.2 µg/mL); Vd [7]: 1.4 L/kg
9 | CNS(=O)(=O)c1cccc(Nc2ncnc3c2ccn3C)c1 | – | > 25000 nM | – | –
10 | CNS(=O)(=O)c1cccc(Nc2ccnc3[nH]ccc23)c1 | – | 8000 nM | – | –
11 | CNS(=O)(=O)c1cccc(Nc2ncnc3c2CC(=O)N3)c1 | – | 400 nM | – | –
12 | CCNS(=O)(=O)c1cccc(Nc2ncnc3[nH]cnc23)c1 | – | 2000 nM | – | –
13 | NS(=O)(=O)c1cccc(Nc2ncnc3[nH]cnc23)c1 | – | 40000 nM | – | –
14 | O=S(=O)(NO)c1cccc(Nc2ncnc3[nH]cnc23)c1 | – | 20000 nM | – | –
15 | CN(C)S(=O)(=O)c1cccc(Nc2ncnc3[nH]cnc23)c1 | – | 8000 nM | – | –
16 | CCS(=O)(=O)c1cccc(Nc2ncnc3[nH]cnc23)c1 | – | 6300 nM | – | –
17 | CNS(=O)(=O)c1cc(Nc2ncnc3[nH]cnc23)ccc1C | – | 13000 nM | – | –
18 | CNS(=O)(=O)c1ccc(C)c(Nc2ncnc3[nH]cnc23)c1 | – | 500 nM | – | –
19 | CNS(=O)(=O)c1cccc(N(C)c2ncnc3[nH]ccc23)c1 | – | 5000 nM | – | –

Row | SMILES | IC50 [1] | IC50 [2] | AUC/dose (Rattus norvegicus) | other results
20 | CNS(=O)(=O)c1cccc(Oc2ncnc3[nH]ccc23)c1 | – | 16000 nM | – | –
21 | CNS(=O)(=O)c1cncc(Nc2ncnc3[nH]ccc23)c1 | – | 250 nM | – | –
22 | CNS(=O)(=O)c1cccc(Nc2ncnc3[nH]cc(C)c23)c1 | 63 nM | 40 nM | 0.18 kg·h/L | –
23 | CNS(=O)(=O)c1cccc(Nc2ncnc3[nH]cc(C(C)C)c23)c1 | 79 nM | 126 nM | 0.06 kg·h/L | –
24 | CNS(=O)(=O)c1cccc(Nc2ncnc3[nH]cc(CC(C)C)c23)c1 | 40 nM | 126 nM | – | –
25 | CNS(=O)(=O)c1cccc(Nc2ncnc3[nH]cc(F)c23)c1 | 79 nM | 126 nM | 0.28 kg·h/L | –
26 | CNS(=O)(=O)c1cccc(Nc2ncnc3[nH]cc(Cl)c23)c1 | 13 nM | 32 nM | 0.39 kg·h/L | clearance [5]: 20 mL/min/kg; Vd [7]: 0.45 L/kg
27 | CNS(=O)(=O)c1cccc(Nc2ncnc3[nH]cc(Br)c23)c1 | 5 nM | 32 nM | 0.55 kg·h/L | clearance [5]: 23 mL/min/kg; Vd [7]: 0.63 L/kg
28 | CNS(=O)(=O)c1cccc(Nc2ncnc3[nH]cc(-c4ccccc4)c23)c1 | 4 nM | 40 nM | 0.05 kg·h/L | clearance [5]: 93 mL/min/kg
29 | CNS(=O)(=O)c1cccc(Nc2ncnc3[nH]cc(-c4ccccc4Cl)c23)c1 | 10 nM | 40 nM | – | –
30 | CNS(=O)(=O)c1cccc(Nc2ncnc3[nH]cc(-c4cccc(Cl)c4)c23)c1 | 1 nM | 63 nM | – | –
31 | CNS(=O)(=O)c1cccc(Nc2ncnc3[nH]cc(-c4ccc(Cl)cc4)c23)c1 | 4 nM | 100 nM | 0.2 kg·h/L | clearance [5]: 65 mL/min/kg
32 | CNS(=O)(=O)c1cccc(Nc2ncnc3[nH]cc(-c4ccc(OC)cc4)c23)c1 | 4 nM | 50 nM | 0.06 kg·h/L | –
33 | CNS(=O)(=O)c1cccc(Nc2ncnc3[nH]cc(-c4ccncc4)c23)c1 | 32 nM | 100 nM | 0 kg·h/L | –
34 | CNS(=O)(=O)c1cccc(Nc2ncnc3[nH]cc(-c4ccc(CN)cc4)c23)c1 | 6 nM | 32 nM | 0 kg·h/L | –
35 | CNS(=O)(=O)c1cccc(Nc2ncnc3[nH]cc(-c4ccc(C(=O)O)cc4)c23)c1 | 16 nM | 100 nM | 0 kg·h/L | –
36 | CNS(=O)(=O)c1cccc(Nc2ncnc3[nH]c(Br)cc23)c1 | 16 nM | 50 nM | 0.26 kg·h/L | –
37 | CNS(=O)(=O)c1cccc(Nc2ncnc3[nH]c(-c4ccccc4)cc23)c1 | 1 nM | 25 nM | 0.01 kg·h/L | –
38 | CNS(=O)(=O)c1cccc(Nc2ncnc3[nH]c(-c4ccccc4C)cc23)c1 | 6 nM | 13 nM | – | –

Row | SMILES | IC50 [1] | IC50 [2] | AUC/dose (Rattus norvegicus) | other results
39 | CNS(=O)(=O)c1cccc(Nc2ncnc3[nH]c(-c4cccc(C)c4)cc23)c1 | 1 nM | 13 nM | 0.01 kg·h/L | –
40 | CNS(=O)(=O)c1cccc(Nc2ncnc3[nH]c(-c4ccc(C)cc4)cc23)c1 | 1 nM | 13 nM | – | –
41 | CNS(=O)(=O)c1cccc(Nc2ncnc3[nH]c(-c4cccc(C(F)(F)F)c4)cc23)c1 | 6 nM | 63 nM | 0.14 kg·h/L | –
42 | CNS(=O)(=O)c1cccc(Nc2ncnc3[nH]c(-c4ccc(O)cc4)cc23)c1 | 1 nM | 13 nM | – | –
43 | CNS(=O)(=O)c1cccc(Nc2ncnc3[nH]c(-c4ccncc4)cc23)c1 | 1 nM | 20 nM | 0 kg·h/L | –
44 | CNS(=O)(=O)c1cccc(Nc2ncnc3[nH]c4ccccc4c23)c1 | 40 nM | 100 nM | 0.03 kg·h/L | –
45 | CNS(=O)(=O)c1ccc(C)c(Nc2ncnc3[nH]ccc23)c1 | – | 630 nM | – | –
46 | CNS(=O)(=O)c1ccc(Cl)c(Nc2ncnc3[nH]ccc23)c1 | 32 nM | 20 nM | – | –
47 | CNc1ccc(S(=O)(=O)NC)cc1Nc1ncnc2[nH]ccc12 | 1000 nM | 6300 nM | – | –
48 | CNS(=O)(=O)c1ccc(N(C)C)c(Nc2ncnc3[nH]ccc23)c1 | 6 nM | 50 nM | 0.59 kg·h/L | IC50 [8]: 50 nM; bioavailability [4]: 100%; clearance [5]: 30 mL/min/kg; solubility [6]: 330 µM (≈ 114 µg/mL)
49 | CNS(=O)(=O)c1ccc(N2CCOCC2)c(Nc2ncnc3[nH]ccc23)c1 | 8 nM | 40 nM | 0.15 kg·h/L | IC50 [8]: 100 nM; clearance [5]: 39 mL/min/kg
50 | CNS(=O)(=O)c1ccc(N(C)C)c(Nc2ncnc3[nH]cc(C)c23)c1 | 0.5 nM | < 10 nM | – | IC50 [8]: 1.6 nM
51 | CNS(=O)(=O)c1ccc(N(C)C)c(Nc2ncnc3[nH]cc(Br)c23)c1 | 0.2 nM | < 10 nM | 0.04 kg·h/L | IC50 [8]: 0.7 nM
52 | CNS(=O)(=O)c1ccc(N2CCOCC2)c(Nc2ncnc3[nH]cc(C)c23)c1 | 1.3 nM | 13 nM | – | IC50 [8]: 7.9 nM
53 | CNS(=O)(=O)c1ccc(N2CCOCC2)c(Nc2ncnc3[nH]cc(Br)c23)c1 | 0.5 nM | < 10 nM | 0.32 kg·h/L | IC50 [8]: 6.3 nM
54 | CNS(=O)(=O)c1ccc(N(C)C)c(Nc2ncnc3[nH]c(Br)cc23)c1 | 6.3 nM | 40 nM | 0.14 kg·h/L | IC50 [8]: 40 nM
55 | CNS(=O)(=O)c1ccc(N(C)C)c(Nc2ncnc3[nH]c(-c4cccc(C(F)(F)F)c4)cc23)c1 | 0.6 nM | 13 nM | – | IC50 [8]: 16 nM
56 | CNS(=O)(=O)c1ccc(N2CCOCC2)c(Nc2ncnc3[nH]c(Br)cc23)c1 | 8 nM | 126 nM | 0.09 kg·h/L | IC50 [8]: 398 nM
57 | CNS(=O)(=O)c1ccc(N2CCOCC2)c(Nc2ncnc3[nH]c(-c4cccc(C(F)(F)F)c4)cc23)c1 | 1.3 nM | 16 nM | – | IC50 [8]: 10 nM
